One assay has as its system cortical cell cultures. Briefly: In Vitro Assay on Ischemia (glutamate toxicity after potassium cyanide / 2-deoxyglucose insult). The class given is cell-based. As to conditions: concentration required to cause a 50% reduction in glutamate toxicity following an ischemic insult. The method, then:
To examine the in vitro effect of the inventive compounds on ischemia, cortical cell cultures were treated with various compounds of this invention during an ischemic insult utilizing potassium cyanide and 2-deoxyglucose, and for one hour thereafter. For a description of the experimental method used, see Vornov et al., J. Neurochem., Vol. 65, No. 4, pp. […] (1995).

Assay [1] relates to chronic constrictive injury-induced rats. Briefly: Neuropathic pain in CCI model (sciatic nerve ligation, thermal hyperalgesia). In kind it is in vivo. Conditions: 10, 1 or 0.1 mg/kg for 15 days after sciatic nerve ligation, FIGS. 13-15. Here is the method:
Sciatic nerve ligation, consisting of 4 ligatures tied loosely around the sciatic nerve at 1 mm intervals proximal to the nerve trifurcation, was performed on rats. […] The rats were habituated to a Hargreaves apparatus. An infrared heat source was directed onto the dorsal surface of each rat's hindpaws and the time taken for the rat to withdraw its paws was noted. The difference in scores between the latency of the response for the paw on the operated side versus the paw on the unoperated control side was determined.
The rats were treated with either Compound 49 (10, 1 or 0.1 mg/kg) or a vehicle for 15 days after sciatic nerve ligation. Thermal pain responses were measured at days 0, 1, 5, 8, 11 and 15. The differences in scores for the rats treated with a vehicle and the rats treated with Compound 49 are graphically presented in FIGS. 13-15.
The rats were treated with either Compound 5 (50, 30, 10, 3, 1 or 0.3 mg/kg) or a vehicle for 12 (or 15) days after sciatic nerve ligation. Thermal pain responses were measured at days 0, 1, 5, 8 and 12 (and 15). The differences in scores for the rats treated with a vehicle and the rats treated with Compound 5 are graphically presented in FIGS. 17-22.
The rats received either Compound C (50 mg/kg i.p. daily) or a vehicle starting 10 days post surgery. […] Normal (unoperated) rats had approximately equal latencies for both paws. This effect was significant starting at 11 days of drug treatment and persisted through to the end of the study (for 21 days of daily dosing).

By EC50 is commonly meant the concentration giving half of the maximal effect. A low value points to greater potency.

Take `O=C(O)c1ccc(CC(CCCS)C(=O)O)cc1` (stereo not drawn) [Compound 6, 4-carboxy-alpha-(3-mercaptopropyl)-benzenepropanoic acid]: the midpoint of the response in the assay on cortical cell cultures, the EC50, lay at 17.8 nM. In the assay on cortical cell cultures, `CS(=O)(=O)c1ccc(CC(CCCS)C(=O)O)cc1` (stereo not drawn) [Compound 7, alpha-(3-mercaptopropyl)-4-(methylsulfonyl)-benzenepropanoic acid] had an EC50 of 1060 nM. This EC50 lies about 60-fold higher than the previous one.

`N#Cc1ccccc1CC(CCCS)C(=O)O` (stereo not drawn) [Compound 8, 2-cyano-alpha-(3-mercaptopropyl)-benzenepropanoic acid]: a half-maximal effect in the assay on cortical cell cultures (EC50) was put at 133 nM. On to `O=C(O)c1cc(CC(CCCS)C(=O)O)cc(C(=O)O)c1` (stereo not drawn) [Compound 9, 5-(2-carboxy-5-mercaptopentyl)-1,3-benzenedicarboxylic acid], for which a half-maximal response with cortical cell cultures (EC50) required 104 nM. As to `O=C(O)c1ccc(Cl)c(CC(CCCS)C(=O)O)c1` (stereo not drawn) [Compound 10, 5-carboxy-2-chloro-alpha-(3-mercaptopropyl)-benzenepropanoic acid], a half-maximal effect in the assay on cortical cell cultures (EC50) was put at 7.7 nM. In the case of `O=C(O)c1cc(CC(CCCS)C(=O)O)ccc1F` (stereo not drawn) [Compound 11, 3-carboxy-4-fluoro-alpha-(3-mercaptopropyl)-benzenepropanoic acid], in the assay on cortical cell cultures, the EC50 is 15.4 nM.

`N#Cc1ccccc1-c1ccc(CC(CCCS)C(=O)O)cc1` (stereo not drawn) [Compound 12, 4-(2-cyanophenyl)-alpha-(3-mercaptopropyl)-benzenepropanoic acid] came in with an EC50 with cortical cell cultures of 188 nM. On to `NC(=O)c1ccccc1CC(CCCS)C(=O)O` (stereo not drawn) [Compound 13, 2-(aminocarbonyl)-alpha-(3-mercaptopropyl)-benzenepropanoic acid], for which the EC50 in the assay on cortical cell cultures came out at 10000 nM. Still for that read-out and setting: the same measure for `O=C(O)c1cccc(OC(CCCS)C(=O)O)c1` (stereo not drawn) [Compound 14, 3-(1-carboxy-4-mercaptobutoxy)-benzoic acid]: 16 nM; for `O=C(O)C(CCCS)Oc1ccccc1` (stereo not drawn) [Compound 15, 5-mercapto-2-phenoxy-pentanoic acid]: 1000 nM.

Turning to `COc1cc(OC)cc(OC(CCCS)C(=O)O)c1` (stereo not drawn) [Compound 16, 2-(3,5-dimethoxyphenoxy)-5-mercapto-pentanoic acid], in the assay with cortical cell cultures, the concentration for a half-maximal effect (EC50) was 267 nM. This EC50 is about 3.7-fold lower than that of the molecule before.

For `O=C(O)Cc1cccc(OC(CCCS)C(=O)O)c1` (stereo not drawn) [Compound 20, 3-(1-carboxy-4-mercaptobutoxy)-benzeneacetic acid], in the assay on cortical cell cultures, the EC50 was 39.3 nM. This EC50 lies about 6.8-fold lower than the previous one. The same measure, in the same setting: the same measure for `O=C(O)Cc1ccc(OC(CCCS)C(=O)O)cc1` (stereo not drawn) [Compound 21, 4-(1-carboxy-4-mercaptobutoxy)-benzeneacetic acid]: 11.6 nM; for `CC(=O)c1cccc(OC(CCCS)C(=O)O)c1` (stereo not drawn) [Compound 23, 2-(3-acetylphenoxy)-5-mercapto-pentanoic acid]: 21 nM; for `CC(=O)Nc1ccc(CC(CCCS)C(=O)O)cc1` (stereo not drawn) [Compound 26, 4-(acetylamino)-alpha-(3-mercaptopropyl)-benzenepropanoic acid]: 1800 nM. In the assay with cortical cell cultures, `COc1ccc(C(=O)O)cc1OC(CCCS)C(=O)O` (stereo not drawn) [Compound 27, 3-(1-carboxy-4-mercaptobutoxy)-4-methoxy-benzoic acid] showed an EC50 of 155 nM.

With `O=C(O)Cc1ccc(CC(CCCS)C(=O)O)cc1` (stereo not drawn) [Compound 28, 4-(carboxymethyl)-alpha-(3-mercaptopropyl)-benzenepropanoic acid], the EC50 in the assay on cortical cell cultures is 48 nM. Regarding `O=C(O)c1ccc(OC(CCCS)C(=O)O)cc1` (stereo not drawn) [Compound 30, 4-(1-carboxy-4-mercaptobutoxy)-benzoic acid], the EC50 in the assay with cortical cell cultures is 399 nM. On to `O=C(O)c1cccc(CC(CCCS)C(=O)O)c1Cl` (stereo not drawn) [Compound 31, 3-carboxy-2-chloro-alpha-(3-mercaptopropyl)-benzenepropanoic acid], for which a half-maximal response in the assay with cortical cell cultures (EC50) required 31 nM. This EC50 is about 13-fold lower than that of the molecule before. The same measure, in the same setting: the same measure for `O=C(O)c1cc(CC(CCCS)C(=O)O)ccc1Cl` (stereo not drawn) [Compound 32, 3-carboxy-4-chloro-alpha-(3-mercaptopropyl)-benzenepropanoic acid]: 7 nM. Still for that read-out and setting: under `O=C(O)c1ccc(Cl)c(OC(CCCS)C(=O)O)c1` (stereo not drawn) [Compound 33, 3-(1-carboxy-4-mercaptobutoxy)-4-chloro-benzoic acid] stands 110 nM; under `O=C(O)c1ccc(F)c(OC(CCCS)C(=O)O)c1` (stereo not drawn) [Compound 34, 3-(1-carboxy-4-mercaptobutoxy)-4-fluoro-benzoic acid], 346 nM; under `O=C(O)c1ccc(F)c(CC(CCCS)C(=O)O)c1` (stereo not drawn) [Compound 35, 5-carboxy-2-fluoro-alpha-(3-mercaptopropyl)-benzenepropanoic acid], 23 nM. Same read-out and setting: the same measure for `COc1ccc(C(=O)O)cc1CC(CCCS)C(=O)O` (stereo not drawn) [Compound 36, 5-carboxy-alpha-(3-mercaptopropyl)-2-methoxy-benzenepropanoic acid]: 74.9 nM. For the molecule `O=C(O)c1ccc(CC(CCCS)C(=O)O)c2ccccc12` (stereo not drawn) [Compound 37, 4-carboxy-alpha-(3-mercaptopropyl)-1-naphthalenepropanoic acid], the concentration for a half-maximal effect (EC50) with cortical cell cultures turned out to be 215 nM. The same measure, in the same setting: under `O=C(O)c1ccccc1CC(CCCS)C(=O)O` (stereo not drawn) [Compound 38, 2-carboxy-alpha-(3-mercaptopropyl)-benzenepropanoic acid] stands 762 nM; under `O=C(O)c1c(F)c(F)c(CC(CCCS)C(=O)O)c(F)c1F` (stereo not drawn) [Compound 39, 4-carboxy-2,3,5,6-tetrafluoro-alpha-(3-mercaptopropyl)-benzenepropanoic acid], 290 nM.

Molecule `O=C(O)C(CCCS)Sc1ccccc1` (stereo not drawn) [Compound 40, 5-mercapto-2-(phenylthio)-pentanoic acid] showed an EC50 with cortical cell cultures of 452 nM. In the case of `O=C(O)C(CCCS)Cc1ccccc1Cl` (stereo not drawn) [Compound 43, 2-chloro-alpha-(3-mercaptopropyl)-benzenepropanoic acid], the EC50 with cortical cell cultures is 452 nM. `O=C(O)c1cc(Br)cc(CC(CCCS)C(=O)O)c1` (stereo not drawn) [Compound 45, 3-bromo-5-carboxy-alpha-(3-mercaptopropyl)-benzenepropanoic acid] displayed an EC50 in the assay with cortical cell cultures of 2 nM. Same read-out and setting: under `O=C(O)CNC(=O)c1cccc(CC(CCCS)C(=O)O)c1` (stereo not drawn) [Compound 46, 3-[[(carboxymethyl)amino]carbonyl]-alpha-(3-mercaptopropyl)-benzenepropanoic acid] stands 544 nM; under `O=C(O)c1ccc(CC(CCCS)C(=O)O)cc1Br` (stereo not drawn) [Compound 47, 3-bromo-4-carboxy-alpha-(3-mercaptopropyl)-benzenepropanoic acid], 119 nM. `O=C(O)c1cc(CC(CCCS)C(=O)O)cc([N+](=O)[O-])c1` (stereo not drawn) [Compound 48, 3-carboxy-alpha-(3-mercaptopropyl)-5-nitro-benzenepropanoic acid]: a half-maximal effect with cortical cell cultures (EC50) was put at 2.4 nM.

On to `CC(C)(C)c1cc(CC(CCCS)C(=O)O)cc(C(=O)O)c1` (stereo not drawn) [Compound 49, 3-carboxy-5-(1,1-dimethylethyl)-alpha-(3-mercaptopropyl)-benzenepropanoic acid], for which the “difference in scores between the operated and unoperated paws” value in assay [1] is on record as “normalized the difference in scores”. Molecule `O=C(O)c1ccc([N+](=O)[O-])c(CC(CCCS)C(=O)O)c1` (stereo not drawn) [Compound 50, 5-carboxy-alpha-(3-mercaptopropyl)-2-nitro-benzenepropanoic acid] displayed an EC50 in the assay with cortical cell cultures of 26 nM. Regarding `O=C(O)c1cc(CC(CCCS)C(=O)O)cc(-c2ccccc2)c1` (stereo not drawn) [Compound 55, 5-(2-carboxy-5-mercaptopentyl)-[1,1′-biphenyl]-3-carboxylic acid], in the assay with cortical cell cultures, the midpoint of the response, the EC50, lay at 1 nM.

`O=C(O)c1ccc(-c2ccccc2)c(CC(CCCS)C(=O)O)c1` (stereo not drawn) [Compound 56]: the EC50 with cortical cell cultures was 11 nM.

`O=C(O)c1cccc(CC(CCCS)C(=O)O)c1-c1ccccc1` (stereo not drawn) [Compound 57, 6-(2-carboxy-5-mercaptopentyl)-[1,1′-biphenyl]-2-carboxylic acid]: in the assay with cortical cell cultures, the midpoint of the response, the EC50, lay at 21 nM. This EC50 is about 1.9-fold higher than that of the molecule before. Same read-out and setting: the same measure for `O=C(O)c1cc(CC(CCCS)C(=O)O)ccc1-c1ccccc1` (stereo not drawn) [Compound 58, 4-(2-carboxy-5-mercaptopentyl)-[1,1′-biphenyl]-2-carboxylic acid]: 16 nM.

Values taken from patent US6992215B2, “Thiol-based NAALADase inhibitors” (Guildford Pharmaceuticals Inc., priority 2001, dated 2006).
